Assay results published in patent US20240239798A1, “SALTS AND POLYMORPHS OF M[…] 3-DEUTEROMITRAGYNINE” (priority 2021, published 2024).
Converted amounts (≈) assume the structure as drawn. Counter-ions that a name gives are not always drawn. Like-named read-outs stand apart in the source and are kept apart here.

What was measured:
[1] = Solubility of 3-DM free base and 3-DM Glycolate Type A in IPA and IPA/H2O (19:1, v/v) at 5, 20, 40, 60° C., 24 hrs; assay type: physicochemical
[2] = Approximate solubility of amorphous 3-DM free base starting material in 27 solvent systems at RT; assay type: physicochemical
Procedure: The approximate solubility of the free base starting material was determined in 27 solvent systems at RT. Approximate 2 mg of material was added into a 3-mL glass vial. […] The solubility results summarized in Table 10 were used to guide the solvent selection in salt screening design.

[3] = assay type: physicochemical; conditions: for solubility: organic solvent or mixture, read-out: Approximate solubility
Procedure: In the first batch (100 mg scale), pure IPA was used as solvent. […] Detailed preparation procedures for the 3 scaled-up batches can be found below.

[4] = Background statements on solubility and gel formation in aqueous solution; assay type: physicochemical
[5] = cited from earlier work
[6] = Batch 810081-28-B

[2H][C@@]12C[C@H](/C(=C\OC)C(=O)OC)[C@H](CC)CN1CCc1c2[nH]c2cccc(OC)c12 [3-DM free base, 3-deuteromitragynine]
Solubility compared with Glycolate Type A ([1]; IPA and IPA/H2O (19:1, v/v), each temperature (5-60° C.)): much higher than that of Glycolate Type A | solubility ([2]; organic solvent or mixture, thermodynamic from solid, 1,4-dioxane, RT): > 42 mg/mL | solubility ([2]; organic solvent or mixture, thermodynamic from solid, 2-MeTHF, RT): > 48 mg/mL | solubility ([2]; organic solvent or mixture, thermodynamic from solid, ACN, RT): > 46 mg/mL | solubility ([2]; organic solvent or mixture, thermodynamic from solid, Acetone, RT): > 38 mg/mL | solubility ([2]; organic solvent or mixture, thermodynamic from solid, Acetone/n-Heptane (1:1), RT): > 38 mg/mL | solubility ([2]; organic solvent or mixture, thermodynamic from solid, Acetone/n-Heptane (1:4), RT): > 46 mg/mL | solubility ([2]; organic solvent or mixture, thermodynamic from solid, Acetone/n-Heptane (1:9), RT): 7.7 to 23 mg/mL (≈ 19.3 to 57.6 mM) | solubility ([2]; organic solvent or mixture, thermodynamic from solid, Acetone/n-Heptane (1:15), RT): 4 to 6.7 mg/mL (≈ 10 to 16.8 mM) | solubility ([2]; organic solvent or mixture, thermodynamic from solid, Acetone/n-Heptane (4:1), RT): > 42 mg/mL | solubility ([2]; organic solvent or mixture, thermodynamic from solid, CHCl3, RT): > 46 mg/mL | solubility ([2]; organic solvent or mixture, thermodynamic from solid, DCM, RT): > 42 mg/mL | solubility ([2]; organic solvent or mixture, thermodynamic from solid, DMAc, RT): > 46 mg/mL | solubility ([2]; organic solvent or mixture, thermodynamic from solid, DMSO, RT): > 34 mg/mL | solubility ([2]; organic solvent or mixture, thermodynamic from solid, EtOAc, RT): > 40 mg/mL | solubility ([2]; organic solvent or mixture, thermodynamic from solid, EtOH, RT): > 38 mg/mL | solubility ([2]; organic solvent or mixture, thermodynamic from solid, IPA, RT): > 36 mg/mL | solubility ([2]; organic solvent or mixture, thermodynamic from solid, IPA/H2O (4:1), RT): 7 to 21 mg/mL (≈ 17.5 to 52.6 mM) | solubility ([2]; organic solvent or mixture, thermodynamic from solid, IPA/H2O (9:1), RT): 23 to 46 mg/mL (≈ 57.6 to 115 mM) | solubility ([2]; organic solvent or mixture, thermodynamic from solid, IPAc, RT): > 42 mg/mL | solubility ([2]; organic solvent or mixture, thermodynamic from solid, MIBK, RT): > 40 mg/mL | solubility ([2]; organic solvent or mixture, thermodynamic from solid, MTBE, RT): > 46 mg/mL | solubility ([2]; organic solvent or mixture, thermodynamic from solid, MeOH, RT): > 46 mg/mL | solubility ([2]; organic solvent or mixture, thermodynamic from solid, NMP, RT): > 44 mg/mL | solubility ([2]; organic solvent or mixture, thermodynamic from solid, THF, RT): > 40 mg/mL | solubility ([2]; organic solvent or mixture, thermodynamic from solid, Toluene, RT): > 36 mg/mL | solubility ([2]; organic solvent or mixture, thermodynamic from solid, n-Heptane, RT): < 2.3 mg/mL | solubility ([2]; water, thermodynamic from solid, H2O, RT): < 2.3 mg/mL | solubility ([3]; EtOAc): > 40 mg/mL | solubility ([3]; EtOH): > 38 mg/mL | Solubility in IPA (in words) ([3]; IPA, approximate): high solubility | solubility ([3]; IPA): > 36 mg/mL | solubility ([3]; MeOH): > 46 mg/mL | solubility ([3]; acetone): > 38 mg/mL | solubility ([3]; acetone/n-heptane (1:1) v/v): > 42 mg/mL

O=C(O)CO.[2H][C@@]12C[C@H](/C(=C\OC)C(=O)OC)[C@H](CC)CN1CCc1c2[nH]c2cccc(OC)c12 [3-DM Glycolate]
Results (forms obtained) (Grind, 4 experiments): Glycolate Type A | Results (forms obtained) (Liquid-vapor diffusion, 12 experiments): Glycolate Type A, B, D, A + C | Results (forms obtained) (Slow cooling, 6 experiments): Glycolate Type A, B, C | Results (forms obtained) (Slow evaporation, 7 experiments): Glycolate Type A, C, E | Results (forms obtained) (Slurry at 50° C., 16 experiments): Glycolate Type A, C | Results (forms obtained) (Slurry at RT, 25 experiments): Glycolate Type A | Results (forms obtained) (Solid vapor diffusion, 12 experiments): Glycolate Type A, C

Cl.[2H]C12CC(C(=COC)C(=O)OC)C(CC)CN1CCc1c2[nH]c2cccc(OC)c12 (centres unmarked) [3-DM hydrochloride salt]
Behaviour in aqueous solution [4]: forms a gel

CC[C@@H]1CN2CCc3c([nH]c4cccc(OC)c34)[C@@H]2C[C@@H]1/C(=C\OC)C(=O)OC [Mitragynine]
Solubility in conventional organic solvents (in words) ([5]; acetone, acetic acid, alcohols, chloroform and diethyl ether): soluble | Solubility in water (in words) ([5]; water): insoluble

O=C(O)CO.[2H]C12CC(C(=COC)C(=O)OC)C(CC)CN1CCc1c2[nH]c2cccc(OC)c12 (centres unmarked)
D10 ([6]; sonication time 0 s): 7.51 μm | D50 ([6]; sonication time 0 s): 19.96 μm | D90 ([6]; sonication time 0 s): 58.66 μm | MV ([6]; sonication time 0 s): 28.68 μm | D10 ([6]; sonication time 30 s (30 Watt)): 5.92 μm | D50 ([6]; sonication time 30 s (30 Watt)): 15.93 μm | D90 ([6]; sonication time 30 s (30 Watt)): 47.05 μm | MV ([6]; sonication time 30 s (30 Watt)): 22.77 μm

[2H]C12CC(C(=COC)C(=O)OC)C(CC)CN1CCc1c2[nH]c2cccc(OC)c12 (centres unmarked) [3-DM Free Base Type A]
Solubility in IPA/H2O (19:1, v/v) compared with IPA [1]: higher than IPA | equilibrium solubility ([1]; IPA/H2O (19:1, v/v) at 60° C.): 73.94 mg/mL

CC[C@@H]1CN2CCc3c([nH]c4cccc(OC)c34)[C@H]2C[C@@H]1/C(=C\OC)C(=O)OC (stereo in doubt) [mitragynine hydrochloride]
Behaviour in aqueous solution ([5]; aqueous solution): form a gel
